Test results as given in patent US9120796B2, “B-lactamase inhibitor picoline salt” (Cubist Pharmaceuticals, Inc., priority 2013, dated 2015).
Structures can show the parent of a compound that is named as a salt.

Tests used:
[1] = Solution stability of salt forms (purity change relative to starting purity)
Source text: As part of the program to improve the process for the manufacture of the sodium salt of (2S,5R)-2-(1,3,4-oxadiazol-2-yl)-7-oxo-1,6-diazabicyclo[3.2.1]octan-6-yl hydrogen sulfate, a new intermediate capable of isolation and utility in the production was sought.
Additionally, the picoline salt precursor was examined for solution stability as an alternative hold point for the process.

[2] = Stability of isolated solid picoline salt at 2 weeks; type: physicochemical; settings: FIG. 23
Source text: Also, the volume inefficiency, throughput bottlenecks, and impurity generation associated with the TBA to Na salt resin exchange process created the need for an improved step. Accordingly, there was a need for a stable solid that could be isolated, stored, and be used as needed to produce the desired sodium API in a reliable, scalable process. In screening different salt forms and examining the potential for crystallizations (as a means to isolate the salt forms), the TBA, pyridine, 5-ethyl-2-methylpyridine, and 2,6-lutidine forms of the API were not able to be successfully isolated in solid form.

[3] = Solubility characteristics of crystalline form; type: physicochemical; settings: a particular (crystalline) form
Source text: The compound of Formula (II) is the 2-picoline salt of (2S,5R)-2-(1,3,4-oxadiazol-2-yl)-7-oxo-1,6-diazabicyclo[3.2.1]octan-6-yl hydrogen sulfate, i.e., 2-methylpyridin-1-ium (2S,5R)-2-(1,3,4-oxadiazol-2-yl)-7-oxo-1,6-diazabicyclo[3.2.1]octan-6-yl sulfate.

Molecule	solution stability in dichloromethane solution ([1]; DCM, room temperature, compared with the TBA salt, FIGS. 22A and 22B)	stability in solution ([1]; in solution, early clinical productions)	stability of isolated solid [2]	solubility characteristics [3]	solution stability in aqueous environments ([1]; aqueous solution, high dilution (~1 wt %), FIGS. 21A and 21B)
O=C1N2C[C@@H](CC[C@H]2c2nnco2)N1OS(=O)(=O)O [Formula (II), 2-methylpyridin-1-ium (2S,5R)-2-(1,3,4-oxadiazol-2-yl)-7-oxo-1,6-diazabicyclo[3.2.1]octan-6-yl sulfate]	significantly inferior to the TBA salt	unstable in solution	found to be stable	low solubility	–
tetrabutylammonium (2S,5R)-2-(1,3,4-oxadiazol-2-yl)-7-oxo-1,6-diazabicyclo[3.2.1]octan-6-yl sulfate [TBA salt, reference compound]	–	–	–	–	found to be a risk for long term scale-up
